In ChEMBL document CHEMBL5665443, “Enzyme Inhibitor Single Concentration assay results for EUbOPEN Chemogenomics Library” (2024):

Tests used:
[1] = biological target: Methyl-CpG-binding domain protein 4 (Homo sapiens) (UniProt O95243); details: Hit No;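 also: MBD4 activity read as fluorescence at 594 nm from cleavage and release of a quenched duplex DNA oligonucleotide, with APE1 coupled to incise the strand and raise turnover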
Description: Inhibition of MBD4 by quantifying inhibition of MBD4-mediated cleavage and dissociation of quenched duplex DNA oligonucleotides, measured as fluorescence at 594 nm. To generate a functional strand incision and increase turn-over this assay is coupled to APE1.

[2] = biological target: G/T mismatch-specific thymine DNA glycosylase (Homo sapiens) (UniProt Q13569); details: Hit No;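 also: human TDG cleavage of quenched duplex DNA oligonucleotides coupled to APE1, strand release read as fluorescence at 594 nm, inhibition of TDG activity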
Sequence of G/T mismatch-specific thymine DNA glycosylase (Homo sapiens) (Q13569 whole entry): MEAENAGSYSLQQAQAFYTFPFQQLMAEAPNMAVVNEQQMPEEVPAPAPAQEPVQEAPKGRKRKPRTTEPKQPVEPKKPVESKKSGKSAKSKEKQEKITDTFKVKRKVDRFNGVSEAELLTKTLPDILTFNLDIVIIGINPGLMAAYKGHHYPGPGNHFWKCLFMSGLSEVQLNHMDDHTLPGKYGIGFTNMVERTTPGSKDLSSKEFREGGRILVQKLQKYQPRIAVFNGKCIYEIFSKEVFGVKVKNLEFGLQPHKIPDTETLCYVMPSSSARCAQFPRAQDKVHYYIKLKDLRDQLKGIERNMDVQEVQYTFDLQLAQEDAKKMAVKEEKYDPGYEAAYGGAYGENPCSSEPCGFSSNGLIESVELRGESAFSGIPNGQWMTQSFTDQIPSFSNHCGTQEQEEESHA
Description: Inhibition of TDG by quantifying inhibition of TDG-mediated cleavage and dissociation of quenched duplex DNA oligonucleotides, measured as fluorescence at 594 nm. To generate a functional strand incision and increase turn-over this assay is coupled to APE1.

[3] = biological target: Uracil-DNA glycosylase (Homo sapiens) (UniProt P13051); details: Hit No;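 also: UNG excision on a quenched double-stranded DNA oligo probe, with APE1 added for strand incision and turnover, read as fluorescence at 594 nm as strands separate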
Sequence of Uracil-DNA glycosylase (Homo sapiens) (P13051 whole entry): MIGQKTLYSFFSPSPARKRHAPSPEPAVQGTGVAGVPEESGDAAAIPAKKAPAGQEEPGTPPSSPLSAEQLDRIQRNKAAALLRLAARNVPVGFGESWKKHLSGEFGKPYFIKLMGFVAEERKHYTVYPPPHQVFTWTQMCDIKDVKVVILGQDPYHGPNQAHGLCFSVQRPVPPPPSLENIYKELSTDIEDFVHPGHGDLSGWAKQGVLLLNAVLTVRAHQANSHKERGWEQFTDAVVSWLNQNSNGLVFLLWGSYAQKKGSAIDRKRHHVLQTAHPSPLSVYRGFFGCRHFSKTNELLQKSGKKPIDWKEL
Description: Inhibition of UNG by quantifying inhibition of UNG-mediated cleavage and dissociation of quenched duplex DNA oligonucleotides, measured as fluorescence at 594 nm. To generate a functional strand incision and increase turn-over this assay is coupled to APE1.

[4] = biological target: T1, Endonuclease 8-like 2 (Homo sapiens) (UniProt Q969S2); details: Compound Concentration 10.0 uM, Hit No;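 also: fluorescence at 594 nm reports NEIL2 cutting and release of a quenched double-stranded DNA oligo substrate, reduced signal read as inhibition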
T1 sequence (whole entry): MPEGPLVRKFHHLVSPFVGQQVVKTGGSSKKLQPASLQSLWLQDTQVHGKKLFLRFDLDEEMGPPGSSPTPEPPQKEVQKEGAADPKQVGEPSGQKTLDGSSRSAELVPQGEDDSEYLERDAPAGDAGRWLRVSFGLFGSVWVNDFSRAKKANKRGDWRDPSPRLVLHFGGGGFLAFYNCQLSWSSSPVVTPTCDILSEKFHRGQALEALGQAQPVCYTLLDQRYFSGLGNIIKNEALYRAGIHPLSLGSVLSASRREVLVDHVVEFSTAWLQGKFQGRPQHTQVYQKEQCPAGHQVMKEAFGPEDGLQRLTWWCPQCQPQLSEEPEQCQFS
Description: Inhibition of NEIL2 by quantifying inhibition of NEIL2-mediated cleavage and dissociation of quenched duplex DNA oligonucleotides, measured as fluorescence at 594 nm.

[5] = biological target: T2, Adenine DNA glycosylase (Homo sapiens) (UniProt Q9UIF7); details: Hit No;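 also: human MUTYH activity read as 594 nm fluorescence from cleavage and release of a quenched DNA duplex, coupled with APE1 for strand incision, lower signal meaning inhibition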
T2 sequence (whole entry): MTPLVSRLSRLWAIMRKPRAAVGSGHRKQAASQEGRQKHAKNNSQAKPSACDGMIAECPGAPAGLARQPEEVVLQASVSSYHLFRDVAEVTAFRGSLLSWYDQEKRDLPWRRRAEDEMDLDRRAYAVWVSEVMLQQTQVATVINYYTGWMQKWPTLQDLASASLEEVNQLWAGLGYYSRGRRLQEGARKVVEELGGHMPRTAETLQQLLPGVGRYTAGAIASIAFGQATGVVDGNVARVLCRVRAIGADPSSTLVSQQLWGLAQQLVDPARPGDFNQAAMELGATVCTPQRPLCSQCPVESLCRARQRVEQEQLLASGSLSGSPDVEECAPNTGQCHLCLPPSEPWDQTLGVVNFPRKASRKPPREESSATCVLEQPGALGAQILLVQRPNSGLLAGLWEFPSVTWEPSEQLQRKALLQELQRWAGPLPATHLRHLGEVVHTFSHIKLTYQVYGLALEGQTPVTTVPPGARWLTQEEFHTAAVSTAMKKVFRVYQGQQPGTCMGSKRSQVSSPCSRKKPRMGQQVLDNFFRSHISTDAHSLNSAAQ
Description: Inhibition of MUTYH by quantifying inhibition of MUTYH-mediated cleavage and dissociation of quenched duplex DNA oligonucleotides, measured as fluorescence at 594 nm. To generate a functional strand incision and increase turn-over this assay is coupled to APE1.

[6] = biological target: T3, Endonuclease III-like protein 1 (Homo sapiens) (UniProt P78549); details: Hit No;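 also: enzyme assay tracking NTHL1 cutting and release of a quenched double-stranded DNA oligo substrate, read as fluorescence at 594 nm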
T3 sequence (whole entry): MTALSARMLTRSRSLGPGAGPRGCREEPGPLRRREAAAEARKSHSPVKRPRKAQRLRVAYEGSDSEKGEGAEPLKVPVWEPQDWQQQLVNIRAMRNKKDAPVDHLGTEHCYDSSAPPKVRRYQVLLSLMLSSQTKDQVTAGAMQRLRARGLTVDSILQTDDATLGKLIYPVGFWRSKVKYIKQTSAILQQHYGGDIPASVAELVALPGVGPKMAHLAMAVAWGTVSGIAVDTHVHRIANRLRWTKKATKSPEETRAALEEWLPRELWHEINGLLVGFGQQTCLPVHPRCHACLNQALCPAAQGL
Description: Inhibition of NTHL1 by quantifying inhibition of NTHL1-mediated cleavage and dissociation of quenched duplex DNA oligonucleotides, measured as fluorescence at 594 nm.

[7] = biological target: T4, Single-strand selective monofunctional uracil DNA glycosylase (Homo sapiens) (UniProt Q53HV7); details: Hit No;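 also: enzymatic SMUG1 assay coupled with APE1, reading fluorescence at 594 nm released when a quenched double-stranded DNA oligonucleotide substrate is cleaved and separated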
T4 sequence (whole entry): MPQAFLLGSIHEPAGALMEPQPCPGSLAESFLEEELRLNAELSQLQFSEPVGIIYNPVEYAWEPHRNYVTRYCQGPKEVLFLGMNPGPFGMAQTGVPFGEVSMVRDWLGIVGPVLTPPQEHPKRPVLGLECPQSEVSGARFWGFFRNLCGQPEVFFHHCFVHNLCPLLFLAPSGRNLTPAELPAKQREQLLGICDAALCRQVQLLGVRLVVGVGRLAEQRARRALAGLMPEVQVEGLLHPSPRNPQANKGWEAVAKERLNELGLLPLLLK
Description: Inhibition of SMUG1 by quantifying inhibition of SMUG1-mediated cleavage and dissociation of quenched duplex DNA oligonucleotides, measured as fluorescence at 594 nm. To generate a functional strand incision and increase turn-over this assay is coupled to APE1.

[8] = biological target: N-glycosylase/DNA lyase (Homo sapiens) (UniProt O15527);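 also: OGG1 cleavage of a quenched duplex DNA oligonucleotide, coupled to APE1 for strand incision, read as fluorescence at 594 nm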
Sequence of N-glycosylase/DNA lyase (Homo sapiens) (O15527 whole entry): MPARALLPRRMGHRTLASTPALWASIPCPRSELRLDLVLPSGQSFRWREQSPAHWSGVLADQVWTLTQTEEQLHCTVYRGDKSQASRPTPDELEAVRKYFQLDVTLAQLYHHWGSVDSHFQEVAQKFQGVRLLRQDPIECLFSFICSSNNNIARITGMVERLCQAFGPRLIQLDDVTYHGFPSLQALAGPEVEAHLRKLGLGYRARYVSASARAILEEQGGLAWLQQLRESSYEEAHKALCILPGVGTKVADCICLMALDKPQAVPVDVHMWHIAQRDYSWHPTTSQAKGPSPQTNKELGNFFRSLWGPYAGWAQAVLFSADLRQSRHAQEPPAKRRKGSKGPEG
Description: Inhibition of OGG1 by quantifying inhibition of OGG1-mediated cleavage and dissociation of quenched duplex DNA oligonucleotides, measured as fluorescence at 594 nm. To generate a functional strand incision and increase turn-over this assay is coupled to APE1.

[9] = biological target: Endonuclease 8-like 1 (Homo sapiens) (UniProt Q96FI4); details: Hit No;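 also: fluorescence at 594 nm from quenched duplex DNA oligonucleotides released by NEIL1 cleavage and strand separation, reported as reduction of this enzyme activity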
Sequence of Endonuclease 8-like 1 (Homo sapiens) (Q96FI4 whole entry): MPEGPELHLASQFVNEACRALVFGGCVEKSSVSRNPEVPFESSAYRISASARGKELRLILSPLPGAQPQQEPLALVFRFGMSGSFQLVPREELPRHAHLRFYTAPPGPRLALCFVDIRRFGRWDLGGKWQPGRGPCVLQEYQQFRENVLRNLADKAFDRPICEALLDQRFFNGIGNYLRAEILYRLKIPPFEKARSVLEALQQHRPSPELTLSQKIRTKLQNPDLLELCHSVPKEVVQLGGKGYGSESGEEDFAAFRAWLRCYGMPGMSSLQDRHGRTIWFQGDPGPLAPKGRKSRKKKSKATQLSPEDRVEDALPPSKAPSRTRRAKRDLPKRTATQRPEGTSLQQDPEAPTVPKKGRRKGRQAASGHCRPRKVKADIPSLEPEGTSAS
Description: Inhibition of NEIL1 by quantifying inhibition of NEIL1-mediated cleavage and dissociation of quenched duplex DNA oligonucleotides, measured as fluorescence at 594 nm.

[10] = Compound Concentration 10.0 uM, Hit No
[11] = Compound Concentration 1.0 uM, Hit No

Sequence of Methyl-CpG-binding domain protein 4 (Homo sapiens) (O95243 whole entry, the tested form may be a part): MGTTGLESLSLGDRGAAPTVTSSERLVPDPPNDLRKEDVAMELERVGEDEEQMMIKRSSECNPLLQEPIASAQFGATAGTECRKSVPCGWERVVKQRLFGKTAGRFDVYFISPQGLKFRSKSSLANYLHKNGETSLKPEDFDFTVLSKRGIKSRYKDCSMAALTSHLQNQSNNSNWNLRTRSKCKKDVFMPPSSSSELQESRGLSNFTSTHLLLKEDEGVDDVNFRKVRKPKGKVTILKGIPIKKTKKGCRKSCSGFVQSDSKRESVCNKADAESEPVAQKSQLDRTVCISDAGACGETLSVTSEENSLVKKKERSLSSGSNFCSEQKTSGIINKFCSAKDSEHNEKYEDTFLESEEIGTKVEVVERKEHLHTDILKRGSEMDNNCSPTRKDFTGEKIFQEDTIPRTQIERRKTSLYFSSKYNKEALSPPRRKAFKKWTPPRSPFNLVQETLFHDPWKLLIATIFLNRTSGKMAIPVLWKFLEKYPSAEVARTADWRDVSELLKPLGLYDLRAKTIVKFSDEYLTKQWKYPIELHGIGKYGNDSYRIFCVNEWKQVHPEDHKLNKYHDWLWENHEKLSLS

SMILES | inhibition ([1]; Compound Concentration 10.0 uM) [%] | inhibition ([2]; Compound Concentration 10.0 uM) [%] | inhibition ([3]; Compound Concentration 10.0 uM) [%] | inhibition [4] [%] | inhibition ([5]; Compound Concentration 10.0 uM) [%] | inhibition ([6]; Compound Concentration 10.0 uM) [%] | inhibition ([7]; Compound Concentration 10.0 uM) [%] | inhibition [8, 10] [%] | inhibition ([9]; Compound Concentration 10.0 uM) [%] | inhibition ([8]; Compound Concentration 10.0 uM, Hit Yes) [%] | inhibition ([1]; Compound Concentration 1.0 uM) [%] | inhibition ([2]; Compound Concentration 1.0 uM) [%] | inhibition ([3]; Compound Concentration 1.0 uM) [%] | inhibition ([9]; Compound Concentration 1.0 uM) [%] | inhibition ([5]; Compound Concentration 1.0 uM) [%] | inhibition ([6]; Compound Concentration 1.0 uM) [%] | inhibition ([7]; Compound Concentration 1.0 uM) [%] | inhibition [8, 11] [%]
COc1nc2ccc([C@@](O)(c3ccc(Cl)cc3)c3cncn3C)cc2c(Cl)c1Cc1ccc(-n2cccn2)cc1 | 64.5 | 42.9 | 9.26 | -3.55 | 6.4 | -3.26 | 16.6 | 14.3 |  |  |  |  |  |  |  |  |  | 
O=C(c1ccc2c(ccn2-c2ccc(F)cc2)c1)N1CC(N2CCN(C(=O)c3nccs3)CC2)C1 | 63.5 | 45.8 | 7.11 | -1.76 | -6.82 | -0.63 | 21.1 | 5 |  |  |  |  |  |  |  |  |  | 
CCC(=O)N[C@@H]1CC[C@H](C(=O)N(C)c2ccc(-c3nc4ccccc4o3)cc2)C1 | 54.4 | 37.2 | 1.95 | 4.61 | -7.15 | 3.97 | 5.39 | -5.03 |  |  |  |  |  |  |  |  |  | 
CC(=O)N1CCC(c2ccc(C(=O)NC3=NCCN3)cc2C(F)(F)F)CC1 | 57 | 48.7 | -0.0445 | 6.91 | 6.4 | 13.2 | 11.2 | -3.66 |  |  |  |  |  |  |  |  |  | 
COc1cc(N(C)c2ccnc3ccc(C(F)(F)F)cc23)cc(OC)c1OC | 5.39 | 33.1 | 1.59 |  | -1.88 | 2.18 | 13.4 | 1.25 | 4.23 |  |  |  |  |  |  |  |  | 
CCOCCn1cc(C(=O)Nc2ccc(-n3nc(-c4cccnc4)cc3C(F)(F)F)cn2)ccc1=O | 54.1 | 35.4 | 1.33 |  | -6.66 | 0.685 | 18.6 | 3.33 | -4.68 |  |  |  |  |  |  |  |  | 
C[C@H](CCOc1cccc(CC(=O)O)c1)N(Cc1cccc(C(F)(F)F)c1Cl)CC(c1ccccc1)c1ccccc1 | 61.9 | 52 | 0.574 |  | -7.97 | 11.9 | 19 |  | -4.38 | 103 |  |  |  |  |  |  |  | 
c1ccc(-c2oc3ncnc(NC[C@@H]4CCCO4)c3c2-c2ccccc2)cc1 |  |  |  |  |  |  |  |  |  |  | 18.1 | 35.9 | 4.04 | -7.66 | 3.16 | 7.06 | 21.6 | 6.47
CNC(=O)Nc1ccc2c(c1)CC[C@@]21OC(=O)N(CC(=O)N(Cc2ccc(F)cc2)[C@@H](C)C(F)(F)F)C1=O |  |  |  |  |  |  |  |  |  |  | 58.8 | 100 | 5.87 | -8.77 | 0.168 | -7.2 | 13.6 | -4.69
COCCOc1nc(-c2ccc(Cl)nc2)nc2c1CN(C(=O)c1ncn3ccccc13)CC2 |  |  |  |  |  |  |  |  |  |  | 67.8 | 39.9 | -0.22 | -3.17 | -6.39 | -3.92 | 8.24 | -1.84
C[C@@H]1CN(c2cc(-c3n[nH]c4ccc(OC5(C)CC5)cc34)ncn2)C[C@H](C)O1 | 64.1 | 98.4 | 3.96 |  | 9.89 | 2 | 18 | -2.23 | -1.5 |  | 12.4 | 48.1 | 7.33 | -2.64 | -7.22 | -1.31 | 23.1 | 12.9
